The record followed here is PubChem BioAssay AID1845196 (Molecular Pharmacology Branch, DTP, NCI, 2023).

This test deals with 292921-168-R tumor spheroid viability. Nature of the test: Anticancer human tumor 292921-168-R patient-derived pancreatic carcinoma cell line growth inhibition. To be noted: spheroids with HUVEC and MSC; for viability, T/C: stronger effect = lower value. In outline: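 Single agents and combinations were tested on spheroids built from tumor cells plus HUVEC and hMSC, at half-log dilutions starting at or near clinical Cmax, else 10 microM; final DMSO 0.25% (v/v).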

[1] abbreviates: curve of first compound, second compound 0.003 µM.

pIC50: −log10 of the molar value. Values joined by “and” are separate entries in the source; they are usually repeats but may differ in a detail not shown here. Equal values may be shown once.
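Further: spheroids exposed to compounds for 7 days.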

As a reminder, the pIC50 is −log10 of the IC50, conventionally taken in molar units. As a reminder, the viability, T/C is the result in the treated group divided by that in the control group, in per cent. With `[2H]c1nc(C)nc([2H])c1-c1cc(NC[C@@H](C)c2cccc3c(C(=O)NC)ccnc23)ncn1` + CC[C@@]1(O)C(=O)OCc2c1cc1n(c2=O)Cc2cc3c(CN(C)C)c(O)ccc3nc2-1, the pIC50 was < 5.00 under setting [1]; < 5.00 (curve of first compound, second compound 0.00949 µM); > 7.50 (curve of first compound, second compound 0.03 µM); > 7.50 (curve of first compound, second compound 0.0949 µM); > 7.50 (curve of first compound, second compound 0.3 µM). Further, the viability, T/C was 101% (second compound 0.003 µM, first compound 0.0316 µM); 87.8% (second compound 0.003 µM, first compound 0.1 µM); 96.9% (second compound 0.003 µM, first compound 0.316 µM); 102% (second compound 0.003 µM, first compound 1 µM); 93.8% (second compound 0.003 µM, first compound 3.16 µM); 86.9% (second compound 0.003 µM, first compound 10 µM). For the same compound, the viability, T/C is, setting by setting: (second compound 0.00949 µM, first compound 0.0316 µM) 83.3%; (second compound 0.00949 µM, first compound 0.1 µM) 81%; (second compound 0.00949 µM, first compound 0.316 µM) 77.7%; (second compound 0.00949 µM, first compound 1 µM) 76.9%; (second compound 0.00949 µM, first compound 3.16 µM) 79.8%; (second compound 0.00949 µM, first compound 10 µM) 70.9%. Further, the viability, T/C (second compound 0.03 µM, first compound 0.0316 µM) was 49.2%; the viability, T/C (second compound 0.03 µM, first compound 0.1 µM) was 35.9%; the viability, T/C (second compound 0.03 µM, first compound 0.316 µM) is 41.5%; the viability, T/C (second compound 0.03 µM, first compound 1 µM) is 37.4%; the viability, T/C (second compound 0.03 µM, first compound 3.16 µM) is 37.4%; the viability, T/C (second compound 0.03 µM, first compound 10 µM) is 23%. Moreover, the viability, T/C is, setting by setting: (second compound 0.0949 µM, first compound 0.0316 µM) 12.1%; (second compound 0.0949 µM, first compound 0.1 µM) 13.4%; (second compound 0.0949 µM, first compound 0.316 µM) 12.2%; (second compound 0.0949 µM, first compound 1 µM) 12.6%; (second compound 0.0949 µM, first compound 3.16 µM) 9.08%; (second compound 0.0949 µM, first compound 10 µM) 8.57%. The viability, T/C (second compound 0.3 µM, first compound 0.0316 µM) is 3.57%; the viability, T/C (second compound 0.3 µM, first compound 0.1 µM) is 4.5%; the viability, T/C (second compound 0.3 µM, first compound 0.316 µM) was 3.67%; the viability, T/C (second compound 0.3 µM, first compound 1 µM) is 3.37%; the viability, T/C (second compound 0.3 µM, first compound 3.16 µM) was 3.59%; the viability, T/C (second compound 0.3 µM, first compound 10 µM) is 2.83%.

Regarding `CC(C)n1c(=O)n(C)c2cnc3cc(F)c(-c4ccc(OCCCN5CCCCC5)nc4)cc3c21`, the viability, T/C is, setting by setting: (compound 0.0316 µM) 93.7% and 95.7% and 101%; (compound 0.1 µM) 92.2% and 101% and 92.6%; (compound 0.316 µM) 92.8% and 93.5% and 87.8%; (compound 1 µM) 92.4% and 91.1% and 84%; (compound 3.16 µM) 70.3% and 70.5% and 69.1%; (compound 10 µM) 29.2% and 26.8% and 32.8%. Moreover, the pIC50 (curve of compound) is 5.25 and 5.26.

With `Cc1sc2c(c1C)C(c1ccc(Cl)cc1)=NC(CC(=O)Nc1ccc(O)cc1)c1nnc(C)n1-2` (stereo unspecified) + COc1cc2c(cc1O)CCNC21CSC2c3c(OC(C)=O)c(C)c4c(c3C(COC1=O)N1C(O)C3Cc5cc(C)c(OC)c(O)c5C(C21)N3C)OCO4, the negative logarithm of the IC50 (pIC50) was 5.77 (curve of first compound, second compound 30 pM); 5.76 (curve of first compound, second compound 94.9 pM); 6.51 (curve of first compound, second compound 0.0003 µM); > 8.02 (curve of first compound, second compound 0.000949 µM); > 8.02 under setting [1]. The viability, T/C is, setting by setting: (second compound 30 pM, first compound 0.00949 µM) 110%; (second compound 30 pM, first compound 0.03 µM) 120%; (second compound 30 pM, first compound 0.0949 µM) 118%; (second compound 30 pM, first compound 0.3 µM) 136%; (second compound 30 pM, first compound 0.949 µM) 63.5%; (second compound 30 pM, first compound 3 µM) 36.5%. Besides, the viability, T/C is 106% (second compound 94.9 pM, first compound 0.00949 µM); 110% (second compound 94.9 pM, first compound 0.03 µM); 118% (second compound 94.9 pM, first compound 0.0949 µM); 110% (second compound 94.9 pM, first compound 0.3 µM); 79.2% (second compound 94.9 pM, first compound 0.949 µM); 22.5% (second compound 94.9 pM, first compound 3 µM). In addition, the viability, T/C by setting is: (second compound 0.0003 µM, first compound 0.00949 µM) 53.8%; (second compound 0.0003 µM, first compound 0.03 µM) 52.6%; (second compound 0.0003 µM, first compound 0.0949 µM) 63.2%; (second compound 0.0003 µM, first compound 0.3 µM) 50.7%; (second compound 0.0003 µM, first compound 0.949 µM) 4.2%; (second compound 0.0003 µM, first compound 3 µM) 0.5%. In addition, the viability, T/C reads like this: (second compound 0.000949 µM, first compound 0.00949 µM) 1.64%; (second compound 0.000949 µM, first compound 0.03 µM) 1.61%; (second compound 0.000949 µM, first compound 0.0949 µM) 0.91%; (second compound 0.000949 µM, first compound 0.3 µM) 0.26%; (second compound 0.000949 µM, first compound 0.949 µM) 0.07%; (second compound 0.000949 µM, first compound 3 µM) 0.13%. In addition, the viability, T/C was 0.18% (second compound 0.003 µM, first compound 0.00949 µM); 0.16% (second compound 0.003 µM, first compound 0.03 µM); 0.16% (second compound 0.003 µM, first compound 0.0949 µM); 0.15% (second compound 0.003 µM, first compound 0.3 µM); 0.25% (second compound 0.003 µM, first compound 0.949 µM); 0.58% (second compound 0.003 µM, first compound 3 µM).

As to `Cn1ncnc1[C@H]1c2n[nH]c(=O)c3cc(F)cc(c23)N[C@@H]1c1ccc(F)cc1`, the viability, T/C was 101% and 87.5% and 95.8% (compound 0.00949 µM); 93.7% and 83.1% and 93% (compound 0.03 µM); 87.9% and 81.8% and 80.5% (compound 0.0949 µM); 68.6% and 62.7% and 63.2% (compound 0.3 µM); 41.3% and 36.9% and 46% (compound 0.949 µM); 14% (2×) and 11.2% (compound 3 µM). In addition, for the setting “curve of compound”, the pIC50 was 6.18 and 6.27 and 6.16.

On to `COc1ccc([C@@H](O)c2cc(-c3ncnc4cc(N5CCOCC5)ccc34)c(F)cc2Cl)nn1`, for which the viability, T/C is 103% and 105% and 96.1% (compound 0.0316 µM); 99.4% and 97.3% and 101% (compound 0.1 µM); 91.3% and 87.4% and 87.8% (compound 0.316 µM); 57.4% and 56.3% and 64.4% (compound 1 µM); 37% and 34.3% and 35.8% (compound 3.16 µM); 20.6% and 19% and 21% (compound 10 µM). Also, where the note is “curve of compound”, the negative-log IC50 (pIC50) was 5.80 and 5.84 and 5.75.
